Marks after values point to notes of the source that are not given here.
How the values were obtained:
[1] = cited from earlier work
[2] = excessive first pass metabolism; cited from earlier work
[3] = oral 60 mg paclitaxel equivalents/animal, fasted male beagle dogs (N = 4)
Procedure: (§1) The study was a randomized, balanced, single dose, parallel group study in Beagle dogs comparing pharmacokinetics in fasted state of capsules containing C11-paclitaxel and DHA-paclitaxel, respectively in SEDDS formulation S2 (see Table 1).
(§2) The strength of each capsule was 12.5 mg of paclitaxel equivalents for the C-11 paclitaxel capsule and 10 mg of paclitaxel equivalents for the DHA-paclitaxel. The total oral dosage provided was 75 mg calculated as parent compound for paclitaxel and C11-paclitaxel, respectively and 60 mg calculated as parent compound for DHA-paclitaxel.
(§3) The dogs were deprived of food from late afternoon the day prior dosing. The capsule was put directly on the aditus laryngis of the dog to ensure that the capsule is not chewed but swallowed whole. All dogs received totally 100 ml of water immediately following the dosing.
(§4) Blood samples (approximately ˜0.5 mL) were taken from each animal at each dosing occasion on 10 time points up to 24 hours after dosing including a pre-dose.
(§5) The pharmacokinetic parameters calculated are i.e. total exposure, or area under the concentration-time curve (AUC0-inf, AUC0-t), peak exposure (Cmax), time to peak exposure (Tmax), terminal half-life t1/2 and the conversion rate from prodrug to parent.

in vivo = conditions: male, beagle, dog, blood, po, 75 mg
Procedure: as §1, §2, §3, §4, §5

CC(=O)O[C@H]1CC[C@@]2(C)C(=CC[C@@H]3[C@@H]2CC[C@]2(C)C(c4cccnc4)=CC[C@@H]32)C1 [Abiraterone acetate]
log P [1]: 5.1

CC(C)c1cccc(C(C)C)c1O [propofol, 2,6-diisopropylphenol]
oral bioavailability [2]: ≤ 3%

CCCCCCCCCCC(=O)O[C@H]1CC[C@H]2[C@@H]3CCC4=CC(=O)CC[C@]4(C)[C@H]3CC[C@]12C [Testosterone undecanoate]
log P [1]: about 8.7

CC/C=C\C/C=C\C/C=C\C/C=C\C/C=C\C/C=C\CCC(=O)O[C@@H](C(=O)O[C@H]1C[C@@]2(O)[C@@H](OC(=O)c3ccccc3)[C@@H]3[C@]4(OC(C)=O)CO[C@@H]4C[C@H](O)[C@@]3(C)C(=O)[C@H](OC(C)=O)C(=C1C)C2(C)C)[C@@H](NC(=O)c1ccccc1)c1ccccc1 [Paclitaxel-DHA, paclitaxel docosahexaenoate]
AUC0-t(parent)/AUC0-t(prodrug) ([3]; conversion prodrug to parent): 22.3% | AUC0-t of paclitaxel (parent) [3]: 73.3 ng·h/mL | AUC0-t of prodrug [3]: 402^e) hr * ng/mL | AUC0-∞ of paclitaxel (parent) [3]: 97.2 ng·h/mL | AUC0-∞ of prodrug [3]: 643^f) hr * ng/mL | Cmax of paclitaxel (parent) [3]: 10.4 ng/mL | Cmax of prodrug [3]: 63.8^d) ng/mL | Tmax of paclitaxel (parent) [3]: 2.25 h | Tmax of prodrug [3]: 4.50 h | t1/2 of paclitaxel (parent) [3]: 11.6 h | t1/2 of prodrug [3]: 6.33 h

CC(=O)O[C@H]1C(=O)[C@@]2(C)[C@H]([C@H](OC(=O)c3ccccc3)[C@]3(O)C[C@H](OC(=O)[C@H](O)[C@@H](NC(=O)c4ccccc4)c4ccccc4)C(C)=C1C3(C)C)[C@]1(OC(C)=O)CO[C@@H]1C[C@@H]2O [Paclitaxel]
AUC(0-inf) (in vivo): 973 ng·h/mL | AUC(0-t) (in vivo): 771 ng·h/mL | Cmax (in vivo): 148 ng/mL | Tmax (in vivo): 2.5 h | half-life (in vivo): 13.7 h

C[C@@H](O)[C@@H]1NC(=O)[C@H](CCCCN)NC(=O)[C@@H](Cc2c[nH]c3ccccc23)NC(=O)[C@H](Cc2ccccc2)NC(=O)[C@@H](NC(=O)[C@H](N)Cc2ccccc2)CSSC[C@@H](C(=O)N[C@H](CO)[C@@H](C)O)NC1=O [Octreotide]
log P [1]: around 1

— patent US11197828B2, “Solid oral dosage form of lipophilic compounds” (SOLURAL PHARMA APS, priority 2014, dated 2021)
